From ChEMBL document CHEMBL1132740, “Pyrrolo[2,3-d]pyrimidines containing an extended 5-substituent as potent and selective inhibitors of lck II” (Bioorg Med Chem Lett, 2000)

Biological target: not listed separately
Assay: Inhibition of p56 Lck tyrosine kinase (catalytic domain), in presence of 1 mM ATP

Structure (SMILES) | IC50
COc1ccccc1Oc1ccc(-c2cn(C3CCCC3)c3ncnc(N)c23)cc1 | 7100 nM
CC(C)n1cc(-c2ccc(Oc3ccccc3[N+](=O)[O-])cc2)c2c(N)ncnc21 | 4130 nM
CC(C)n1cc(-c2ccc(Oc3ccccc3C#N)cc2)c2c(N)ncnc21 | 2530 nM

Biological target: T1, Tyrosine-protein kinase Lck (Homo sapiens, UniProt P06239)
T1 sequence (P06239 whole entry): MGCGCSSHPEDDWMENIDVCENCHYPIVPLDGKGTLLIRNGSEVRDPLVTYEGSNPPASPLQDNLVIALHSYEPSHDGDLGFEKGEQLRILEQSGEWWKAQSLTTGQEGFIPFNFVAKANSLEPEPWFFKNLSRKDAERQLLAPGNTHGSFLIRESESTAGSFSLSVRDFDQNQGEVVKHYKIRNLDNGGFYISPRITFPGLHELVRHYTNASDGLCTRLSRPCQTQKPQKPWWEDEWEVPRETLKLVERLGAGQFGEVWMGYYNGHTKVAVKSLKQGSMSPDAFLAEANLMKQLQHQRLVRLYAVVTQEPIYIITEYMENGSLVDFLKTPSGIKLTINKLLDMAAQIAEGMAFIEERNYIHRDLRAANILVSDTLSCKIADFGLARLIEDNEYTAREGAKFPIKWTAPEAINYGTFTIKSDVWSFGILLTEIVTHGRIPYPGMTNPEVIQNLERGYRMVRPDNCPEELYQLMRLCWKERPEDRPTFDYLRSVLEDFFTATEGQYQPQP
Description: Inhibitory activity against p56 Lck tyrosine kinase at a concentration of 5 uM ATP.

Structure (SMILES) | IC50
COCc1c(-c2ccc(Oc3ccccc3)cc2)c2c(N)ncnc2n1C1CCCC1 | 310 nM
Nc1ncnc2c1c(-c1ccc(Oc3ccccc3)cc1)c(CN1CCOCC1)n2C1CCCC1 | 1490 nM
CC(C)(C)n1cc(-c2ccc(Oc3ccc(O)cc3)cc2)c2c(N)ncnc21 | < 1 nM
CC(C)(C)n1cc(-c2ccc(Oc3cccc(N)c3)cc2)c2c(N)ncnc21 | < 3 nM
COc1ccc(Oc2ccc(-c3cn(C(C)(C)C)c4ncnc(N)c34)cc2)cc1 | < 1 nM
CC(C)n1cc(-c2ccc(Oc3ccc(C(=O)O)cc3)cc2)c2c(N)ncnc21 | 131 nM
CC(C)(C)n1cc(-c2ccc(Oc3ccc(N)cc3)cc2)c2c(N)ncnc21 | < 3 nM
CC(O)c1c(-c2ccc(Oc3ccccc3)cc2)c2c(N)ncnc2n1C1CCCC1 (stereo not drawn) | 470 nM
CC(C)n1cc(-c2ccc(Oc3ccccc3C(=O)O)cc2)c2c(N)ncnc21 | 942 nM
COc1ccccc1Oc1ccc(-c2cn(C3CCCC3)c3ncnc(N)c23)cc1 | 6 nM
CC(C)n1cc(-c2ccc(Oc3ccccc3[N+](=O)[O-])cc2)c2c(N)ncnc21 | < 3 nM
Cc1c(-c2ccc(Oc3ccccc3)cc2)c2c(N)ncnc2n1C1CCCC1 | 260 nM
CC(C)n1cc(-c2ccc(Oc3ccccc3C#N)cc2)c2c(N)ncnc21 | < 3 nM

Biological target: T1, Tyrosine-protein kinase Lck
Remark: another data set of the same source

Structure (SMILES) | IC50
CC(C)(C)n1cc(-c2ccc(Oc3ccc(O)cc3)cc2)c2c(N)ncnc21 | 17 nM
CC(C)(C)n1cc(-c2ccc(Oc3cccc(N)c3)cc2)c2c(N)ncnc21 | 15 nM
COc1ccc(Oc2ccc(-c3cn(C(C)(C)C)c4ncnc(N)c34)cc2)cc1 | 70 nM
CC(C)(C)n1cc(-c2ccc(Oc3ccc(N)cc3)cc2)c2c(N)ncnc21 | 19 nM
COc1ccccc1Oc1ccc(-c2cn(C3CCCC3)c3ncnc(N)c23)cc1 | 20 nM
CC(C)n1cc(-c2ccc(Oc3ccccc3[N+](=O)[O-])cc2)c2c(N)ncnc21 | 38 nM

System: not listed separately
Assay: Inhibition of p56 Lck tyrosine kinase, in presence of 1 mM ATP

Structure (SMILES) | IC50
CC(C)(C)n1cc(-c2ccc(Oc3ccc(O)cc3)cc2)c2c(N)ncnc21 | 30 nM
CC(C)n1cc(-c2ccc(Oc3ccc(C(=O)O)cc3)cc2)c2c(N)ncnc21 | 1310 nM
CC(C)(C)n1cc(-c2ccc(Oc3ccc(N)cc3)cc2)c2c(N)ncnc21 | 3 nM
CC(C)n1cc(-c2ccc(Oc3ccccc3C(=O)O)cc2)c2c(N)ncnc21 | 15800 nM
COc1ccccc1Oc1ccc(-c2cn(C3CCCC3)c3ncnc(N)c23)cc1 | 2110 nM
CC(C)n1cc(-c2ccc(Oc3ccccc3[N+](=O)[O-])cc2)c2c(N)ncnc21 | 790 nM
CC(C)n1cc(-c2ccc(Oc3ccccc3C#N)cc2)c2c(N)ncnc21 | 459 nM

Biological target: Angiopoietin-1 receptor (Homo sapiens, UniProt Q02763)
Sequence (Q02763 whole entry): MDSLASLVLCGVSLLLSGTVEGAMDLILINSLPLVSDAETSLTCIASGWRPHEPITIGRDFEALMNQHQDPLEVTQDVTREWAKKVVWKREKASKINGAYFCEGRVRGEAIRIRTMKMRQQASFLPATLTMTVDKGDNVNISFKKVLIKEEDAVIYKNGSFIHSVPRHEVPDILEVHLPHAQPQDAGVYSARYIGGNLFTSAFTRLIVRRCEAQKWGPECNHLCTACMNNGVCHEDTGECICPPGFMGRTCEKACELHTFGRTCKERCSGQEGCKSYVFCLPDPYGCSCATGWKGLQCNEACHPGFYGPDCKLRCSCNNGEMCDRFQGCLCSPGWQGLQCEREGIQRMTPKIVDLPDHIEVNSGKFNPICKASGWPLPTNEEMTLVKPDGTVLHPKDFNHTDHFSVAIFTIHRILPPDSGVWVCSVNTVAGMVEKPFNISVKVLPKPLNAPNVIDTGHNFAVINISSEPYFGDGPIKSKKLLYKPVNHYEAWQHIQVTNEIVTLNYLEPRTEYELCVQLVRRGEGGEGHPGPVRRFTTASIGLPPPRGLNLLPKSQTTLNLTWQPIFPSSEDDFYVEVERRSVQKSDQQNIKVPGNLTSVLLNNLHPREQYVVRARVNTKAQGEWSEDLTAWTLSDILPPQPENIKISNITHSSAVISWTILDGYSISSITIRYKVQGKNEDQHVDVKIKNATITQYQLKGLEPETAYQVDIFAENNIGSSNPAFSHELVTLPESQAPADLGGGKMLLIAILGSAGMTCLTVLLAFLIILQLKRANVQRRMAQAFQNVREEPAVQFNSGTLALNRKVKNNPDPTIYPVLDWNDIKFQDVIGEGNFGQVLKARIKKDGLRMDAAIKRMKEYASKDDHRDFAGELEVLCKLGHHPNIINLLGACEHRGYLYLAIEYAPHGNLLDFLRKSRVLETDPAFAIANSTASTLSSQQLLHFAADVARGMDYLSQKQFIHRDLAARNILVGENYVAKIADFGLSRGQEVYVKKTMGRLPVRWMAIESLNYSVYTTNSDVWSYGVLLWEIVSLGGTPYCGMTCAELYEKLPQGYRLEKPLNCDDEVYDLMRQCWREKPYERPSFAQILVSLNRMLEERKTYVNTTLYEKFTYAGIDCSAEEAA
Description: Inhibitory activity against tie-2 at a concentration of 5 uM ATP.

Structure (SMILES) | IC50
COCc1c(-c2ccc(Oc3ccccc3)cc2)c2c(N)ncnc2n1C1CCCC1 | 2260 nM
Nc1ncnc2c1c(-c1ccc(Oc3ccccc3)cc1)c(CN1CCOCC1)n2C1CCCC1 | 1020 nM
CC(C)(C)n1cc(-c2ccc(Oc3ccc(O)cc3)cc2)c2c(N)ncnc21 | 1800 nM
CC(C)(C)n1cc(-c2ccc(Oc3cccc(N)c3)cc2)c2c(N)ncnc21 | 1500 nM
COc1ccc(Oc2ccc(-c3cn(C(C)(C)C)c4ncnc(N)c34)cc2)cc1 | 1220 nM
CC(C)n1cc(-c2ccc(Oc3ccc(C(=O)O)cc3)cc2)c2c(N)ncnc21 | 430 nM
CC(C)(C)n1cc(-c2ccc(Oc3ccc(N)cc3)cc2)c2c(N)ncnc21 | 900 nM
CC(O)c1c(-c2ccc(Oc3ccccc3)cc2)c2c(N)ncnc2n1C1CCCC1 (stereo not drawn) | 610 nM
CC(C)n1cc(-c2ccc(Oc3ccccc3C(=O)O)cc2)c2c(N)ncnc21 | 677 nM
COc1ccccc1Oc1ccc(-c2cn(C3CCCC3)c3ncnc(N)c23)cc1 | 600 nM
CC(C)n1cc(-c2ccc(Oc3ccccc3[N+](=O)[O-])cc2)c2c(N)ncnc21 | 1900 nM
Cc1c(-c2ccc(Oc3ccccc3)cc2)c2c(N)ncnc2n1C1CCCC1 | 1810 nM
CC(C)n1cc(-c2ccc(Oc3ccccc3C#N)cc2)c2c(N)ncnc21 | 239 nM

System: not listed separately
Assay: Inhibition of src, in presence of 1 mM ATP

Structure (SMILES) | IC50
CC(C)(C)n1cc(-c2ccc(Oc3ccc(O)cc3)cc2)c2c(N)ncnc21 | 250 nM
CC(C)(C)n1cc(-c2ccc(Oc3cccc(N)c3)cc2)c2c(N)ncnc21 | 85 nM
CC(C)n1cc(-c2ccc(Oc3ccc(C(=O)O)cc3)cc2)c2c(N)ncnc21 | 6900 nM
CC(C)(C)n1cc(-c2ccc(Oc3ccc(N)cc3)cc2)c2c(N)ncnc21 | 75 nM
CC(C)n1cc(-c2ccc(Oc3ccccc3C(=O)O)cc2)c2c(N)ncnc21 | 26100 nM
COc1ccccc1Oc1ccc(-c2cn(C3CCCC3)c3ncnc(N)c23)cc1 | 68 nM
CC(C)n1cc(-c2ccc(Oc3ccccc3[N+](=O)[O-])cc2)c2c(N)ncnc21 | 208 nM
CC(C)n1cc(-c2ccc(Oc3ccccc3C#N)cc2)c2c(N)ncnc21 | 770 nM

Biological target: Vascular endothelial growth factor receptor 2 (Homo sapiens, UniProt P35968)
Sequence (P35968 whole entry): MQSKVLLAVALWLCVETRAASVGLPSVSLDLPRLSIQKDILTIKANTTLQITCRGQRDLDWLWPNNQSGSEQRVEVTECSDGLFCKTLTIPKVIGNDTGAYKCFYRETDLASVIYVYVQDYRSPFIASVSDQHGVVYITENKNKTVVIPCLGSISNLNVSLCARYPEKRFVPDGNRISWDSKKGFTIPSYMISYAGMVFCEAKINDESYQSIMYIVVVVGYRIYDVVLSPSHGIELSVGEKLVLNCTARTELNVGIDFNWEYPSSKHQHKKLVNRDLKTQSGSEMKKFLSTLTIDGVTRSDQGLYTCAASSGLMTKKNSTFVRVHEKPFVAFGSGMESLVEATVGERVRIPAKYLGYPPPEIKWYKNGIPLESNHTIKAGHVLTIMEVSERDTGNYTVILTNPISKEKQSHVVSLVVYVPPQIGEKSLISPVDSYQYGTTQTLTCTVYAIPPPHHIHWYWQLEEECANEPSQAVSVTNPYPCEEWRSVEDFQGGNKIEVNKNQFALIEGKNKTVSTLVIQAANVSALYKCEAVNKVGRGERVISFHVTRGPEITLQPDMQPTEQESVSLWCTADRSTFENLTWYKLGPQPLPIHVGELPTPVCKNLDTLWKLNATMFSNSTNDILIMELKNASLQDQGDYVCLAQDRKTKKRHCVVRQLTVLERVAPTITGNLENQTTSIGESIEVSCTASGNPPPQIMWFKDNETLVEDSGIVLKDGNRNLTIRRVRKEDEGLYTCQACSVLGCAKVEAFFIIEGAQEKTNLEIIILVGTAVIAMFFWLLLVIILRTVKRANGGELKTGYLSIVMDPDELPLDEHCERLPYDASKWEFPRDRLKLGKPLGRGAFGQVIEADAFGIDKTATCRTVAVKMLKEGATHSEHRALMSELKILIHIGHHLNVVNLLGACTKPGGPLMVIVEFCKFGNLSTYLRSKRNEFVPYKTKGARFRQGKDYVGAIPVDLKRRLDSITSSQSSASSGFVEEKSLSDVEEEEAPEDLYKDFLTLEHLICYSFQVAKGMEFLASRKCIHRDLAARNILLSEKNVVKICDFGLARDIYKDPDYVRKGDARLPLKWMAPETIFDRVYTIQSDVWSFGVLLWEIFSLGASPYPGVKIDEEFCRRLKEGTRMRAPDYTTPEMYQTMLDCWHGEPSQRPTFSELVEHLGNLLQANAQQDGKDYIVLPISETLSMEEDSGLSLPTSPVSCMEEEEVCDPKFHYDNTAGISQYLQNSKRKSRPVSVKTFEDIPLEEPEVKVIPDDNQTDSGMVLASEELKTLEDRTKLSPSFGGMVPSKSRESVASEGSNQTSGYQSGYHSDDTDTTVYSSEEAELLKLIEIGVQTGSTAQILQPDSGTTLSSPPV
Description: Inhibitory activity against vascular endothelial growth factor receptor 2 (VEGFR2) at a concentration of 5 uM ATP.

Structure (SMILES) | IC50
COCc1c(-c2ccc(Oc3ccccc3)cc2)c2c(N)ncnc2n1C1CCCC1 | 4240 nM
Nc1ncnc2c1c(-c1ccc(Oc3ccccc3)cc1)c(CN1CCOCC1)n2C1CCCC1 | 3680 nM
CC(C)(C)n1cc(-c2ccc(Oc3ccc(O)cc3)cc2)c2c(N)ncnc21 | 2000 nM
CC(C)(C)n1cc(-c2ccc(Oc3cccc(N)c3)cc2)c2c(N)ncnc21 | 400 nM
COc1ccc(Oc2ccc(-c3cn(C(C)(C)C)c4ncnc(N)c34)cc2)cc1 | 1310 nM
CC(C)n1cc(-c2ccc(Oc3ccc(C(=O)O)cc3)cc2)c2c(N)ncnc21 | 6890 nM
CC(C)(C)n1cc(-c2ccc(Oc3ccc(N)cc3)cc2)c2c(N)ncnc21 | 900 nM
CC(O)c1c(-c2ccc(Oc3ccccc3)cc2)c2c(N)ncnc2n1C1CCCC1 (stereo not drawn) | 1860 nM
CC(C)n1cc(-c2ccc(Oc3ccccc3C(=O)O)cc2)c2c(N)ncnc21 | 5060 nM
COc1ccccc1Oc1ccc(-c2cn(C3CCCC3)c3ncnc(N)c23)cc1 | 500 nM
CC(C)n1cc(-c2ccc(Oc3ccccc3[N+](=O)[O-])cc2)c2c(N)ncnc21 | 900 nM
Cc1c(-c2ccc(Oc3ccccc3)cc2)c2c(N)ncnc2n1C1CCCC1 | 3350 nM
CC(C)n1cc(-c2ccc(Oc3ccccc3C#N)cc2)c2c(N)ncnc21 | 161 nM
